The structures appear in SMILES notation. Where a name gives a salt, the structure may show the parent alone.

As a reminder, the melting point is the temperature, or range, at which the solid turns liquid. Turning to `COc1cccc2c1nc(C(F)F)n2-c1nc(-c2ccncc2)nc(N2CCN(C(=O)CCl)CC2)n1` (as salt: hydrochloride) [Example 6, 1-[4-[4-(chloroacetyl)-1-piperazinyl]-6-(4-pyridinyl)-1,3,5-triazin-2-yl]-2-(difluoromethyl)-4-methoxy-1H-benzimidazole], the melting point is greater than 300 °C.

In turn, `CN(C)CCCOc1cccc2c1nc(C(F)F)n2-c1nc(N2CCOCC2)nc(N2CCN(S(=O)(=O)CCl)CC2)n1` (as salt: hydrochloride) [Example 13] returned a melting point of 243 to 247 °C.

Regarding `CN(C)CCCOc1cccc2c1nc(C(F)F)n2-c1nc(N2CCOCC2)nc(N(C)C2CCN(C(=O)CCl)CC2)n1` (as salt: hydrochloride) [Example 20, N-[1-(chloroacetyl)-4-piperidinyl]-4-{2-(difluoromethyl)-4-[3-(dimethylamino)propoxy]-1H-benzimidazol-1-yl}-N-methyl-6-(4-morpholinyl)-1,3,5-triazin-2-amine], the melting point was 128 °C (dec.).

`O=C(CCl)N1CCN(c2nc(-c3cccc(O)c3)nc(N3CCOCC3)n2)CC1` [Example 1, 3-[4-[4-(chloroacetyl)-1-piperazinyl]-6-(4-morpholinyl)-1,3,5-triazin-2-yl]phenol]: the melting point lay within 242 to 245 °C.

With `CCOc1cccc2c1nc(C(F)F)n2-c1nc(N2CCOCC2)nc(N2CCN(C(=O)CCl)CC2)n1` [Example 2, 1-[4-[4-(chloroacetyl)-1-piperazinyl]-6-(4-morpholinyl)-1,3,5-triazin-2-yl]-2-(difluoromethyl)-4-ethoxy-1H-benzimidazole], the melting point fell in the range of 217 to 219 °C.

For the molecule `O=C(CCl)N1CCN(c2nc(N3CCOCC3)nc(-n3c(C(F)F)nc4ccccc43)n2)CC1` [Example 3, 1-[4-[4-(Chloroacetyl)-1-piperazinyl]-6-(4-morpholinyl)-1,3,5-triazin-2-yl]-2-(difluoromethyl)-1H-benzimidazole], the melting point was in the range of 189 to 191 °C.

As for `O=C(CCl)N1CCN(c2nc(N3CCOCC3)nc(-n3c(C(F)F)nc4c(O)cccc43)n2)CC1` [Example 5, 1-[4-[4-(Chloroacetyl)-1-piperazinyl]-6-(4-morpholinyl)-1,3,5-triazin-2-yl]-2-(difluoromethyl)-1H-benzimidazol-4-ol], the melting point was 267 to 270 °C.

The molecule `COc1cccc2c1nc(C(F)F)n2-c1nc(N2CCOCC2)nc(N2CCN(C(=O)C(Cl)Cl)CC2)n1` [Example 7, 1-[4-[4-(dichloroacetyl)-1-piperazinyl]-6-(4-morpholinyl)-1,3,5-triazin-2-yl]-2-(difluoromethyl)-4-methoxy-1H-benzimidazole] registered a melting point of 275 to 278 °C.

The record behind these values is US20110053907A1, “SUBSTITUTED PYRIMIDINES AND TRIAZINES AND THEIR USE IN CANCER THERAPY” (Auckland UniServices Limited, priority 2008, published 2011).
